Measurements published in publication PMC7801115, “Preclinical in vitro screening of newly synthesised amidino substituted benzimidazoles and benzothiazoles” (Journal of Enzyme Inhibition and Medicinal Chemistry, 2021).
Read-outs that look alike come from different tables or passages of the source.

How the values were obtained:
[1] = Plasma protein binding, equilibrium dialysis; assay type: in vitro ADME; details: for fraction unbound at 4 h, 5 µM: equilibrium dialysis 4 h, 37 °C; for recovery at 4 h, 5 µM: recovery in PPB experiment (value in brackets)
Protocol: The extent of binding to plasma proteins was assessed using equilibrium dialysis method. Plasma (human and mouse) was spiked with test compounds and three controls (nicardipine and verapamil in both species, acebutolol in human and caffeine in mouse plasma) to obtain final concentration of 5 µM (0.5%DMSO). Hydrated membranes were inserted into equilibrium dialysis unit (HT Dialysis) according to manufacturer’s instructions. The dialysate side was then loaded with appropriate volume of buffer, while the same volume of spiked plasma was added into sample side of the well. Incubation lasted 4 h at 37 °C with gentle shaking. Afterwards, protein precipitation was done by mixing matrix matched aliquot of plasma or buffer with 3 volumes of MeCN/MeOH (2:1) mixture, containing internal standard (diclofenac). After centrifugation (at 4500 rpm, at 4 °C, for 30 min) resulting supernatants were subjected to LC-MS/MS.
(§1) All ADME samples were analysed on a Sciex API 4000 or Sciex API4500 Triple Quadrupole Mass Spectrometer (Sciex, Framingham, MA, USA) coupled to a UHPLC System (Shimadzu Nexera X2; Shimadzu, Kyoto, Japan). Samples were injected onto an UPLC column (HALO2 C18, 2.1 × 20 mm, 2 µm or Phenomenex Luna Omega Polar C18, 30 × 2.1 mm, 1.6 µm) and eluted with a gradient at temperature of 50 °C. The mobile phase was composed of acetonitrile (with 0.1% formic acid) and 0.1% formic acid in deionised water. A total run time was 1 or 1.5 min, with the flow rate of 0.7 ml/min (under gradient conditions). A positive ion mode with turbo spray, an ion source temperature of 500 °C and a dwell time of 150 ms were utilised for mass spectrometric detection. Multiple reaction monitoring (MRM) was used at the specific transitions for each compound/control tested: compound 5c: 361.9 → 304.9; compound 5d: 344.8 → 287.9; compound 5e: 349.8 → 292.9; compound 5 g: 350.8 → 293.9; compound 5 h: 344.0 → 286.9; compound 6a: 276.9 → 220.0; compound 5 b: 319.0 → 262.0; compound 6 b: 302.1 → 245.1; compound 6c: 344.9 → 288.0; compound 6d: 333.0 → 276.0; compound 6e: 316.1 → 259.0; compound 6f: 327.1 → 270.0; compound 6 g: 377.1 → 320.1; testosterone: 289.3→ 97.1; propranolol: 260.1 → 182.8; caffeine: 195.2 → 138.1; acebutolol: 337.2 → 116.2, nicardipine: 480.2 → 315.0; verapamil: 455.4 → 165.1; amprenavir: 506.2 → 245.4; diclofenac: 296.1 → 213.7 or 296.2 → 215.3; eucatropine: 292.2 → 109.1; benfluorex: 352.1 → 230.3, and warfarin: 309.2 → 163.2

Stability in plasma = assay type: in vitro ADME; details: 37 °C
Protocol: Tested compounds (final concentration of 5 µM, 0.5% DMSO) were incubated for 4 h at 37 °C in human and mouse plasma, respectively. Aliquots were taken at different time points (0, 30, 120 and 240 min) and reaction was terminated by addition of a MeCN/MeOH (2:1) mixture, containing internal standard (diclofenac). Samples were then centrifuged (at 4500 rpm, at 4 °C, for 30 min) and resulting supernatants were subjected to LC-MS/MS analysis. The same procedure was followed for controls used in the assay: propranolol (both species), benfluorex (mouse) and eucatropine (human), respectively.
as §1

HCC827 [2] = assay: MTS cell viability (cytotoxicity) assay, 2D cell culture; assay type: cell-based; details: Homo sapiens; HCC827, 2D cell culture, 72 h, MTS; ±SD, N = 2; read-out: IC50 antitumor activity HCC827 2D
Protocol: (§2) Compounds are diluted 1:3. 500 nL (for 2 D cell culture) or 400 nL (for 3 D cell culture) of compound were transferred from mother plate to test plate by using Mosquito (TTP labtech). DMSO percentage in test concentrations was 0.5 − 1.0%. Starting concentration of the test compounds and standard compound doxorubicin was 50 µM (2 D cell culture) or 100 µM (3 D cell culture).
(§3) Cells were grown in 96 well cell star polystyrene plates. 10,000 cells/well were seeded in wells 4 h prior the treatment with different compounds concentrations and incubated for 72 h. A cell viability assay was performed according to the manufacturer’s instruction, using CellTiter 96 aqueous solution, MTS kit (Promega, Madison, WI, USA). After 0.5–2 h of cell incubation with MTS in 2 D cell culture, the plates were read using PE EnVision absorbance at 490 nm. […] Since we prefer homogeneous assays (mix and read procedures) and therefore MTS is more practical (one step less than MTT). MTS is more sensitive and accurate in comparison with MTT assay.
(§4) Calculation of IC50 data, curves and QC analysis is made by using Excel tools and GraphPadPrism software (La Jolla, CA), v. […] QC criteria parameters (Z', S:B, R2, HillSlope) were checked for every IC50 curve.

A549 [3] = assay: as above; assay type: cell-based; details: Homo sapiens, A549, 2D cell culture, 72 h, ±SD, N = 2, read-out: IC50 antitumor activity A549 2D
Protocol: as §2, §3, §4

NCI-H358 [4] = assay: as above; assay type: cell-based; details: Homo sapiens; NCI-H358, 2D cell culture, 72 h, MTS; ±SD, N = 2; read-out: IC50 antitumor activity NCI-H358 2D
Protocol: as §2, §3, §4

HCC827 [5] = assay: Cell viability assay, 3D hanging drop cell culture (CellTiter GLO 3D); assay type: cell-based; details: Homo sapiens; HCC827, 3D hanging drop cell culture, 72 h; ±SD, N = 2; read-out: IC50 antitumor activity HCC827 3D
Protocol: as §2
(§5) Cells were grown in 96 well Perfecta 3 D hanging drop plates 5000 cell/well for 4 days until spheres were formed (and checked under the microscope). After sphere formation cells were treated with compounds followed by 72 h incubation. Cell viability assay was performed according to the manufacturer’s instruction, using CellTiter GLO 3 D for 3 D cell culture (Promega); cell incubation was 5 min on the shaker followed by 25 min incubation in the dark. Plates were read using PE EnVision luminescence.
as §4

A549 [6] = assay: as above; assay type: cell-based; details: Homo sapiens; A549, 3D hanging drop cell culture, 72 h; ±SD, N = 2; read-out: IC50 antitumor activity A549 3D
Protocol: as §2, §5, §4

NCI-H358 [7] = assay: as above; assay type: cell-based; details: Homo sapiens; NCI-H358, 3D hanging drop cell culture, 72 h; ±SD, N = 2; read-out: IC50 antitumor activity NCI-H358 3D
Protocol: as §2, §5, §4

[8] = human plasma, read-out: PPB % bound, Human (converted)
[9] = mouse plasma, read-out: PPB % bound, Mouse (converted)

| SMILES | fraction unbound at 4 h, 5 µM [1, 8] | recovery at 4 h, 5 µM ([1]; human plasma) | fraction unbound at 4 h, 5 µM [1, 9] | recovery at 4 h, 5 µM ([1]; mouse plasma) | remaining at 4 h, 5 µM (Stability in plasma; human plasma) | remaining at 4 h, 5 µM (Stability in plasma; mouse plasma) | IC50 (HCC827 [2]) | IC50 (A549 [3]) | IC50 (NCI-H358 [4]) | IC50 (HCC827 [5]) | IC50 (A549 [6]) | IC50 (NCI-H358 [7]) |
| --- | --- | --- | --- | --- | --- | --- | --- | --- | --- | --- | --- | --- |
| c1ccc2c(c1)cc(-c1nc3cc(C4=NCCCN4)ccc3[nH]1)c1ccccc12 [Compound 6g, 2-(Phenanthrene-9-yl)-5(6)–(3,4,5,6-tetrahydropyrimidin-1-ium-2-yl)benzimidazole chloride] | 0.015 | 96% | 0.003 | 95% | 85% | 81% | > 50 µM | > 50 µM | > 50 µM | > 100 µM | > 100 µM | > 100 µM |
| N#Cc1ccc(-c2nc3cc(C4=NCCCN4)ccc3[nH]2)cc1 [Compound 6b, 2–(4-Cyanophenyl)-5(6)–(3,4,5,6-tetrahydropyrimidin-1-ium-2-yl)benzimidazole chloride] | 0.457 | 91% | 0.365 | 87% | 98% | 119% | > 50 µM | > 50 µM | > 50 µM | > 100 µM | > 100 µM | > 100 µM |
| Cl.c1ccc2sc(-c3nc4ccc(C5=NCCCN5)cc4s3)cc2c1 [Compound 5e, 2-(Benzo[b]thiophen-2-yl)-6–(3,4,5,6-tetrahydropyrimidin-1-ium-2-yl)benzothiazole chloride] | 0.021 | 79% | 0.013 | 82% | 82% | 77% | 7 ± 0.12 µM | 36 ± 6.37 µM | 16 ± 0.98 µM | 22 ± 9.45 µM | 23 ± 6.24 µM | 34 ± 0.16 µM |
| c1ccc2cc(-c3nc4cc(C5=NCCCN5)ccc4[nH]3)ccc2c1 [Compound 6f, 2-(Naphthalene-2-yl)-5(6)–(3,4,5,6-tetrahydropyrimidin-1-ium-2-yl)benzimidazole chloride] | 0.19 | 91% | 0.12 | 102% | 106% |  | > 50 µM | > 50 µM | > 50 µM | > 100 µM | > 100 µM | > 100 µM |
| Cl.c1ccc2sc(-c3nc4ccc(C5=NCCCN5)cc4s3)nc2c1 [Compound 5g, 2-(Benzothiazole-2-yl)-6–(3,4,5,6-tetrahydropyrimidin-1-ium-2-yl)benzothiazole chloride] | 0.049 | 94% | 0.04 | 85% | 86% | 81% | 19 ± 2.21 µM | 41 ± 0.54 µM | 26 ± 0.3 µM | 17 ± 0.93 µM | 15 ± 1.35 µM | 31 ± 0.05 µM |
| Cl.c1ccc2nc(-c3nc4ccc(C5=NCCCN5)cc4s3)ccc2c1 [Compound 5d, 2-(Quinoline-2-yl)-6–(3,4,5,6-tetrahydropyrimidin-1-ium-2-yl)benzothiazole chloride] | 0.053 | 76% | 0.04 | 82% | 81% | 85% | 14 ± 2.09 µM | > 50 µM | 20 ± 2.53 µM | > 100 µM | 16 ± 1.3 µM | 40 ± 4.89 µM |
| c1ccc2sc(-c3nc4cc(C5=NCCCN5)ccc4[nH]3)cc2c1 [Compound 6d, 2-(Benzo[b]thiophen-2-yl)-5(6)–(3,4,5,6-tetrahydropyrimidin-1-ium-2-yl)benzimidazole chloride] | 0.074 | 86% | 0.061 | 89% | 95% | 92% | > 50 µM | > 50 µM | > 50 µM | > 100 µM | > 100 µM | > 100 µM |
| FC(F)(F)c1ccc(-c2nc3cc(C4=NCCCN4)ccc3[nH]2)cc1 [Compound 6c, 2–(4-Trifluoromethylphenyl)-5(6)–(3,4,5,6-tetrahydropyrimidin-1-ium-2-yl)benzimidazole chloride] | 0.144 | 97% | 0.13 | 117% | 96% | 94% | > 50 µM | > 50 µM | > 50 µM | > 100 µM | > 100 µM | > 100 µM |
| Cl.N#Cc1ccc(-c2nc3ccc(C4=NCCCN4)cc3s2)cc1 [Compound 5b, 2–(4-Cyanophenyl)-6–(3,4,5,6-tetrahydropyrimidin-1-ium-2-yl)benzothiazole chloride] | 0.334 | 93% | 0.249 | 98% | 86% | 95% | > 50 µM | > 50 µM | > 50 µM | > 100 µM | 60 ± 1.44 µM | > 100 µM |
| c1ccc2c(-c3nc4ccc(C5=NCCCN5)cc4[nH]3)c[nH]c2c1 [Compound 6e, 2-(1H-Indol-3-yl)-5(6)–(3,4,5,6-tetrahydropyrimidin-1-ium-2-yl)benzimidazole chloride] | 0.349 | 81% | 0.259 | 91% | 98% | 84% | > 50 µM | > 50 µM | > 50 µM | > 100 µM | > 100 µM | > 100 µM |
